Test results from ChEMBL document CHEMBL3244163, “Antifungal agents. 5. Chemical modification of antibiotics from Polyangium cellulosum var. fulvum. Alcohol, ketone, aldehyde, and oxime analogues of ambruticin” (1979).
≈ marks a conversion by molar mass, not a printed value. Calls of active or inactive are those of the source. No cut-off for these calls is given here.

Key:
Streptococcus pyogenes = test: Antibacterial activity against Streptococcus pyogenes by standard broth dilution technique; format: functional, organism-based
Candida albicans = test: Antifungal activity against Candida albicans by standard broth dilution technique; format: functional, organism-based
Histoplasma capsulatum = test: Antifungal activity against Histoplasma capsulatum assessed as growth inhibition after 3 days by standard broth dilution technique; format: functional; conditions: 72 h
[1] = Antifungal activity against Microsporum fulvum assessed as growth inhibition after 3 days by standard broth dilution technique; format: functional; conditions: Arthroderma fulvum

Row | SMILES | Activity (Streptococcus pyogenes) | Activity (Candida albicans) | MIC (Histoplasma capsulatum) [µg/mL] | MIC [1] [µg/mL]
1 | CC[C@H]1O[C@@H](/C(C)=C/[C@H](C)/C=C/[C@H]2[C@@H](C)[C@@H]2/C=C/[C@@H]2O[C@H](CC(O)c3ccccc3)C[C@H](O)[C@H]2O)CC=C1C (some centres undefined) | inactive | inactive | 1.56 (≈ 2.91 µM) | 1.56 (≈ 2.91 µM)
2 | CC[C@H]1O[C@@H](/C(C)=C/[C@H](C)/C=C/[C@H]2[C@@H](C)[C@@H]2/C=C/[C@@H]2O[C@H](CC(=O)O)C[C@H](O)[C@H]2O)CC=C1C [AMBRUTICIN] | inactive | inactive | 0.39 (≈ 0.822 µM) | 0.098 (≈ 0.206 µM)
3 | CC[C@H]1O[C@@H](/C(C)=C/[C@H](C)/C=C/[C@H]2[C@@H](C)[C@@H]2/C=C/[C@@H]2O[C@H](CCO)C[C@](C)(O)[C@H]2O)CC=C1C | inactive | inactive | 0.78 (≈ 1.64 µM) | 0.78 (≈ 1.64 µM)
4 | CC[C@H]1O[C@@H](/C(C)=C/[C@H](C)/C=C/[C@H]2[C@@H](C)[C@@H]2/C=C/[C@@H]2O[C@H](CC(=O)OC)CC(=O)[C@H]2O)CC=C1C | inactive | inactive | 0.39 (≈ 0.801 µM) | 0.195 (≈ 0.401 µM)
5 | CC[C@H]1O[C@@H](/C(C)=C/[C@H](C)/C=C/[C@H]2[C@@H](C)[C@@H]2/C=C/[C@@H]2O[C@H](CC=O)C[C@H](O)[C@H]2O)CC=C1C | inactive | inactive | 0.78 (≈ 1.7 µM) | 0.098 (≈ 0.214 µM)
6 | CC[C@H]1O[C@@H](/C(C)=C/[C@H](C)/C=C/[C@H]2[C@@H](C)[C@@H]2/C=C/[C@@H]2O[C@H](CC(=O)OC)C[C@@H](O)[C@H]2O)CC=C1C | inactive | inactive | 0.39 (≈ 0.798 µM) | 0.39 (≈ 0.798 µM)
7 | CCC(=O)C[C@@H]1C[C@H](O)[C@@H](O)[C@H](/C=C/[C@H]2[C@H](C)[C@@H]2/C=C/[C@@H](C)/C=C(\C)[C@H]2CC=C(C)[C@@H](CC)O2)O1 | inactive | inactive | 0.78 (≈ 1.6 µM) | 0.78 (≈ 1.6 µM)
8 | CC[C@H]1O[C@@H](/C(C)=C/[C@H](C)/C=C/[C@H]2[C@@H](C)[C@@H]2/C=C/[C@@H]2O[C@H](CC(C)O)C[C@H](O)[C@H]2O)CC=C1C (some centres undefined) | inactive | inactive | 0.098 (≈ 0.206 µM) | 0.195 (≈ 0.411 µM)
9 | CC[C@H]1O[C@@H](/C(C)=C/[C@H](C)/C=C/[C@H]2[C@@H](C)[C@@H]2/C=C/[C@@H]2O[C@H](CCO)C/C(=N\O)[C@H]2O)CC=C1C | inactive | inactive | 0.098 (≈ 0.207 µM) | 0.195 (≈ 0.412 µM)
10 | CC[C@H]1O[C@@H](/C(C)=C/[C@H](C)/C=C/[C@H]2[C@@H](C)[C@@H]2/C=C/[C@@H]2O[C@H](CCO)C[C@@H](O)[C@H]2O)CC=C1C | inactive | inactive | 0.39 (≈ 0.847 µM) | 0.39 (≈ 0.847 µM)
11 | CC[C@H]1O[C@@H](/C(C)=C/[C@H](C)/C=C/[C@H]2[C@@H](C)[C@@H]2/C=C/[C@@H]2O[C@H](CC(=O)c3ccccc3)C[C@H](O)[C@H]2O)CC=C1C | inactive | inactive | 6.25 (≈ 11.7 µM) | 25 (≈ 46.8 µM)
12 | CC[C@H]1O[C@@H](/C(C)=C/[C@H](C)/C=C/[C@H]2[C@@H](C)[C@@H]2/C=C/[C@@H]2O[C@H](CC(O)C(C)(C)C)C[C@H](O)[C@H]2O)CC=C1C (some centres undefined) | inactive | inactive | 6.25 (≈ 12.1 µM) | > 50
13 | CC[C@H]1O[C@@H](/C(C)=C/[C@H](C)/C=C/[C@H]2[C@@H](C)[C@@H]2/C=C/[C@@H]2O[C@H](CCO)C[C@H](O)[C@H]2O)CC=C1C | inactive | inactive | 0.098 (≈ 0.213 µM) | 0.098 (≈ 0.213 µM)
14 | CC[C@H]1O[C@@H](/C(C)=C/[C@H](C)/C=C/[C@H]2[C@@H](C)[C@@H]2/C=C/[C@@H]2O[C@H](CC(O)(C(C)C)C(C)C)C[C@H](O)[C@H]2O)CC=C1C | inactive | inactive | 50 (≈ 91.8 µM) | > 50
15 | CC[C@H]1O[C@@H](/C(C)=C/[C@H](C)/C=C/[C@H]2[C@@H](C)[C@@H]2/C=C/[C@@H]2O[C@H](CCOC(=O)Nc3ccccc3)C[C@H](OC(=O)Nc3ccccc3)[C@H]2OC(=O)Nc2ccccc2)CC=C1C | inactive | inactive | – | > 50
16 | CCC(O)C[C@@H]1C[C@H](O)[C@@H](O)[C@H](/C=C/[C@H]2[C@H](C)[C@@H]2/C=C/[C@@H](C)/C=C(\C)[C@H]2CC=C(C)[C@@H](CC)O2)O1 (some centres undefined) | inactive | inactive | 0.78 (≈ 1.6 µM) | –

Row | SMILES | Activity (Streptococcus pyogenes) | Activity (Candida albicans) | MIC (Histoplasma capsulatum) [µg/mL] | MIC [1] [µg/mL]
17 | CC[C@H]1O[C@@H](/C(C)=C/[C@H](C)/C=C/[C@H]2[C@@H](C)[C@@H]2/C=C/[C@@H]2O[C@H](CC(=O)OC)C/C(=N/O)[C@H]2O)CC=C1C | inactive | inactive | 0.78 (≈ 1.55 µM) | –
18 | CC[C@H]1O[C@@H](/C(C)=C/[C@H](C)/C=C/[C@H]2[C@@H](C)[C@@H]2/C=C/[C@@H]2O[C@H](CC(=O)C(C)(C)C)C[C@H](O)[C@H]2O)CC=C1C | inactive | inactive | 12.5 (≈ 24.3 µM) | > 50
19 | CC[C@H]1O[C@@H](/C(C)=C/[C@H](C)/C=C/[C@H]2[C@@H](C)[C@@H]2/C=C/[C@@H]2O[C@H](CC(=O)O)C[C@@H](O)[C@H]2O)CC=C1C | inactive | inactive | 0.78 (≈ 1.64 µM) | 0.195 (≈ 0.411 µM)
20 | CC[C@H]1O[C@@H](/C(C)=C/[C@H](C)/C=C/[C@H]2[C@@H](C)[C@@H]2/C=C/[C@@H]2O[C@H](CC(O)(CC)CC)C[C@H](O)[C@H]2O)CC=C1C | inactive | inactive | 1.56 (≈ 3.02 µM) | 3.12 (≈ 6.04 µM)
21 | CC[C@H]1O[C@@H](/C(C)=C/[C@H](C)/C=C/[C@H]2[C@@H](C)[C@@H]2/C=C/[C@@H]2O[C@H](CC(=O)O)C/C(=N/O)[C@H]2O)CC=C1C | inactive | inactive | 3.12 (≈ 6.4 µM) | 1.56 (≈ 3.2 µM)
22 | CC[C@H]1O[C@@H](/C(C)=C/[C@H](C)/C=C/[C@H]2[C@@H](C)[C@@H]2/C=C/[C@@H]2O[C@H](CCO)CC(=O)[C@H]2O)CC=C1C | inactive | inactive | 6.25 (≈ 13.6 µM) | 0.78 (≈ 1.7 µM)
23 | CC[C@H]1O[C@@H](/C(C)=C/[C@H](C)/C=C/[C@H]2[C@@H](C)[C@@H]2/C=C/[C@@H]2O[C@H](CCO)C[C@@](O)(c3ccccc3)[C@H]2O)CC=C1C | inactive | inactive | 3.12 (≈ 5.81 µM) | 6.25 (≈ 11.6 µM)
24 | CC[C@H]1O[C@@H](/C(C)=C/[C@H](C)/C=C/[C@H]2[C@@H](C)[C@@H]2/C=C/[C@@H]2O[C@H](CCO)C[C@@](O)(CC)[C@H]2O)CC=C1C | inactive | inactive | 1.56 (≈ 3.19 µM) | 1.56 (≈ 3.19 µM)
25 | CC[C@H]1O[C@@H](/C(C)=C/[C@H](C)/C=C/[C@H]2[C@@H](C)[C@@H]2/C=C/[C@@H]2O[C@H](CCOC(=O)Nc3ccc(Br)cc3)C[C@H](OC(=O)Nc3ccc(Br)cc3)[C@H]2OC(=O)Nc2ccc(Br)cc2)CC=C1C | inactive | inactive | – | > 50
26 | CC[C@H]1O[C@@H](/C(C)=C/[C@H](C)/C=C/[C@H]2[C@@H](C)[C@@H]2/C=C/[C@@H]2O[C@H](CCOC(C)=O)C[C@H](OC(C)=O)[C@H]2OC(C)=O)CC=C1C | inactive | inactive | 50 (≈ 85.2 µM) | > 50
27 | CC[C@H]1O[C@@H](/C(C)=C/[C@H](C)/C=C/[C@H]2[C@@H](C)[C@@H]2/C=C/[C@@H]2O[C@H](CCOC(=O)Nc3ccc(Cl)cc3)C[C@H](OC(=O)Nc3ccc(Cl)cc3)[C@H]2OC(=O)Nc2ccc(Cl)cc2)CC=C1C | inactive | inactive | – | > 50
28 | CC[C@H]1O[C@@H](/C(C)=C/[C@H](C)/C=C/[C@H]2[C@@H](C)[C@@H]2/C=C/[C@@H]2O[C@H](CC(=O)OC)C[C@H](O)[C@H]2O)CC=C1C | inactive | inactive | 0.39 (≈ 0.798 µM) | 0.39 (≈ 0.798 µM)
29 | CC[C@H]1O[C@@H](/C(C)=C/[C@H](C)/C=C/[C@H]2[C@@H](C)[C@@H]2/C=C/[C@@H]2O[C@H](CC(C)=O)C[C@H](O)[C@H]2O)CC=C1C | inactive | inactive | 0.39 (≈ 0.825 µM) | 0.195 (≈ 0.413 µM)
30 | CC[C@H]1O[C@@H](/C(C)=C/[C@H](C)/C=C/[C@H]2[C@@H](C)[C@@H]2/C=C/[C@@H]2O[C@H](CC(O)(c3ccccc3)c3ccccc3)C[C@H](O)[C@H]2O)CC=C1C | inactive | inactive | 50 (≈ 81.6 µM) | > 50
31 | CC[C@H]1O[C@@H](/C(C)=C/[C@H](C)/C=C/[C@H]2[C@@H](C)[C@@H]2/C=C/[C@@H]2O[C@H](CC(C)(C)O)C[C@H](O)[C@H]2O)CC=C1C | inactive | inactive | 0.78 (≈ 1.6 µM) | 0.195 (≈ 0.399 µM)
